The values below come from patent US20170121344A1 (Siga Technologies, Inc., priority 2009, published 2017).

Molecules are shown by their SMILES. pEC50: −log10 of the molar value. Counter-ions that a name gives are not always drawn. Like-named read-outs stand apart in the source and are kept apart here.

As usually defined, the pEC50 is the negative decadic logarithm of the EC50, by convention in mol/L. The EC50 is the midpoint of the concentration-response curve.

The assay has as its system Dengue-2 (Strain New Guinea C). Put plainly: Viral yield assay against Dengue-2 in Vero cells. In kind it is cell-based, Dengue virus. The conditions noted are these: Dengue virus; for pEC50: read-out: Activity (EC50 class) against Dengue-2 Virus in Vero cells; for EC50: read-out: Activity (EC50 in μM) DENV-2. The procedure:
Compounds that were active in the primary screen were tested for activity in viral yield assays. […] Vero cells in 12-well plates were infected with dengue-2 virus at a multiplicity of infection (MOI) of 0.1, treated with compound (or DMSO as a control), incubated at 37° C., harvested 48 hours post infection and titered on Vero cells as described above. The EC50 was calculated through ExcelFit. Activities against other serotypes of dengue virus were determined in a similar way.

The mark [1] stands for this setting: Vero cells, MOI 0.1, harvested 48 hours post infection.
Setting [2] is: DENV2, viral yield assay, Vero cells, MOI 0.1, 48 hours post infection.

Consider `Cc1cc(C)c2c(N)c(C(=O)Nc3ccc(Br)cc3)sc2n1` [Compound 172, 3-Amino-4,6-dimethyl-thieno[2,3-b]pyridine-2-carboxylic acid (4-bromo-phenyl)-amide], for which, for the setting “Vero, 48 h”, the pEC50 is less than 4.60.

As for `CN1CCc2nc3sc(C(=O)Nc4cccc(Cl)c4)c(N)c3cc2C1` [Compound 18, 3-Amino-6-methyl-5,6,7,8-tetrahydro-thieno[2,3-b][1,6]naphthyridine-2-carboxylic acid (3-chloro-phenyl)-amide], the pEC50 under setting [1] was greater than 5.30.

Regarding `CC(C)N1CCc2nc3sc(C(=O)Nc4cccc(F)c4)c(N)c3cc2C1` [Compound 24, 3-Amino-6-isopropyl-5,6,7,8-tetrahydro-thieno[2,3-b][1,6]naphthyridine-2-carboxylic acid (3-fluoro-phenyl)-amide], the pEC50 under setting [1] was greater than 5.30.

As for `COCc1cc(C)nc2sc(C(=O)Nc3ccc(Cl)cc3)c(N)c12` [Compound 81, 3-Amino-4-methoxymethyl-6-methyl-thieno[2,3-b]pyridine-2-carboxylic acid (4-chloro-phenyl)-amide], the pEC50 (Vero, 48 h) was 4.60 to 5.30.

In the case of `CC(NC(=O)c1sc2nc3c(cc2c1N)CN(C)CC3)[C@]12C[C@H]3C[C@H](C[C@H](C3)C1)C2` (stereo partly shown) [Compound 47, 3-Amino-6-methyl-5,6,7,8-tetrahydro-thieno[2,3-b][1,6]naphthyridine-2-carboxylic acid (1-adamantan-1-yl-ethyl)-amide], under setting [1], the negative logarithm of the EC50 (pEC50) is greater than 5.30.

Consider `COc1cccc(-c2ccc3c(N)c(C(=O)Nc4ccc(C)c(Cl)c4)sc3n2)c1` [Compound 544, 3-amino-N-(3-chloro-4-mehtyl-phenyl)-6-(3-methoxyphenyl)thieno[2,3-b] pyridine-2-carboxamide], for which, under setting [2], the 50% effective concentration (EC50) is less than 5 µM.

`Nc1c(C(=O)Nc2nnc(-c3ccccc3)s2)sc2nc3c(cc12)CNCCC3` [Compound 52, 3-Amino-6,7,8,9-tetrahydro-5H-1-thia-6,10-diaza-cyclohepta[f]indene-2-carboxylic acid (5-phenyl-[1,3,4]thiadiazol-2-yl)-amide hydrochloride]: the pEC50 under setting [1] was greater than 5.30.

Regarding `COc1ccc(Cl)cc1NC(=O)c1sc2nc3c(cc2c1N)CN(Cc1ccccc1)CC3` [Compound 31, 3-Amino-6-benzyl-5,6,7,8-tetrahydro-thieno[2,3-b][1,6]naphthyridine-2-carboxylic acid (5-chloro-2-methoxy-phenyl)-amide], under setting [1], the pEC50 was greater than 5.30.

As for `COc1cccc(-c2ccc3c(N)c(C(=O)Nc4cc(C(F)(F)F)ccc4OC)sc3n2)c1` [Compound 558, 3-amino-6-(3-methoxyphenyl)-N-[2-methoxy-5-(trifluoromethyl)phenyl] thieno[2,3-b]pyridine-2-carboxamide], the EC50 under setting [2] is less than 5 µM.

As to `Cc1cc(C)c2c(N)c(C(=O)N3CCOCC3)sc2n1` [Compound 145, (3-Amino-4,6-dimethyl-thieno[2,3-b]pyridin-2-yl)-morpholin-4-yl-methanone], the pEC50 under setting [1] was less than 4.60.

On to `COc1ccc(-c2ccc3c(N)c(C(=O)Nc4ccc(F)cc4Cl)sc3n2)cc1OC` [Compound 539, 3-amino-N-(2-chloro-4-fluoro-phenyl)-6-(3,4-dimethoxyphenyl)thieno[2,3-b] pyridine-2-carboxamide], for which the EC50 under setting [2] is less than 5 µM.

With `NC(=O)c1sc2nc(N3CCOCC3)c3c(c2c1N)CCCC3` [Compound 171, 1-Amino-5-morpholin-4-yl-6,7,8,9-tetrahydro-thieno[2,3-c]isoquinoline-2-carboxylic acid amide], for the setting “Vero, 48 h”, the pEC50 is less than 4.60.

In the case of `Nc1c(C(=O)N2CCC[C@H]2C(=O)O)sc2nc(-c3cccs3)ccc12` [Compound 484, 1-[3-amino-6-(2-thienyl)thieno[2,3-b]pyridine-2-carbonyl]pyrrolidine-2-carboxylic acid], the EC50 (DENV2, Vero, 48 h) was less than 5 µM.

On to `Nc1c(C(=O)Nc2cccc(C(F)(F)F)c2)sc2nc(-c3ccc(F)cc3)ccc12` [Compound 456, 3-amino-6-(4-fluorophenyl)-N-[3-(trifluoromethyl)phenyl]thieno[2,3-b] pyridine-2-carboxamide], for which, under setting [2], the EC50 is less than 5 µM.

Consider `O=C(Nc1ccc(OC(F)(F)F)cc1)c1sc2ncccc2c1OCc1ccc(Cl)c(Cl)c1` [Compound 378, 3-[(3,4-dichlorophenyl)methoxy]-N-[4-(trifluoromethoxy)phenyl]thieno[2,3-b] pyridine-2-carboxamide], for which the EC50 under setting [2] is less than 5 µM.

In the case of `Cc1cc(C)c2c(N)c(C(=O)Nc3ccccc3F)sc2n1` [Compound 178, 3-Amino-4,6-dimethyl-thieno[2,3-b]pyridine-2-carboxylic acid (2-fluoro-phenyl)-amide], the negative logarithm of the EC50 (pEC50) (Vero, 48 h) was less than 4.60.

For `COc1ccccc1NC(=O)c1sc2nc(-c3ccc(C)cc3)ccc2c1N` [Compound 643, 3-amino-N-(2-methoxyphenyl)-6-(p-tolyl)thieno[2,3-b]pyridine-2-carboxamide], under setting [2], the EC50 is less than 5 µM.

Regarding `Nc1c(C(=O)Nc2nnc(-c3ccccc3)s2)sc2ncc(C(=O)O)cc12` [Compound 291, 3-amino-2-[(5-phenyl-1,3,4-thiadiazol-2-yl)carbamoyl]thieno[2,3-b]pyridine-5-carboxylic acid], under setting [2], the EC50 lay in the range of 5 to 25 µM.

Take `CN1CCc2nc3sc(C(=O)Nc4ccc(F)cc4F)c(N)c3cc2C1` [Compound 111, 3-Amino-6-methyl-5,6,7,8-tetrahydro-thieno[2,3-b][1,6]naphthyridine-2-carboxylic acid (2,4-difluoro-phenyl)-amide]: the pEC50 under setting [1] was 4.60 to 5.30.

On to `Nc1c(C(=O)Nc2cccc3ccccc23)sc2nc3c(cc12)CCCCC3` [Compound 374, 3-amino-N-(naphthalen-1-yl)-6,7,8,9-tetrahydro-5H-cyclohepta[b]thieno[3,2-e] pyridine-2-carboxamide], for which the EC50 under setting [2] is less than 5 µM.

With `COc1cccc(NC(=O)c2sc3nc(-c4cccc(OC)c4)ccc3c2N)c1` [Compound 503, 3-amino-N,6-bis(3-methoxyphenyl) thieno[2,3-b]pyridine-2-carboxamide], the EC50 under setting [2] is less than 5 µM.

Consider `CC(C)N1CCc2nc3sc(C(=O)Nc4ccc(OC(F)(F)F)cc4)c(N)c3cc2C1` [Compound 59, 3-Amino-6-isopropyl-5,6,7,8-tetrahydro-thieno[2,3-b][1,6]naphthyridine-2-carboxylic acid (4-trifluoromethoxy-phenyl)-amide], for which the pEC50 under setting [1] was greater than 5.30.

Regarding `N#Cc1cc2c(N)c(C(=O)Nc3ccc(S(N)(=O)=O)cc3)sc2nc1N` [Compound 136, 3,6-Diamino-5-cyano-thieno[2,3-b]pyridine-2-carboxylic acid (4-sulfamoyl-phenyl)-amide], the pEC50 under setting [1] is less than 4.60.

`Nc1c(C(=O)N(CC(=O)O)c2cccc(C(F)(F)F)c2)sc2nc(-c3cccs3)ccc12` [Compound 326]: under setting [2], the EC50 was less than 5 µM.

For the compound `N#Cc1cc2c(N)c(C(=O)N(c3ccccc3)c3ccccc3)sc2nc1N` [Compound 69, 3,6-Diamino-5-cyano-thieno[2,3-b]pyridine-2-carboxylic acid diphenylamide], the pEC50 under setting [1] was 4.60 to 5.30.

Turning to `Cc1cnc2sc(C(=O)Nc3nnc(-c4ccccc4)s3)c(N)c2c1` [Compound 286, 3-amino-5-methyl-N-(5-phenyl-1,3,4-thiadiazol-2-yl)thieno[2,3-b]pyridine-2-carboxamide], under setting [2], the EC50 is less than 5 µM.

As to `CN1CCc2nc3sc(C(=O)Nc4ccc(F)cc4)c(N)c3cc2C1` [Compound 29, 3-Amino-6-methyl-5,6,7,8-tetrahydro-thieno[2,3-b][1,6]naphthyridine-2-carboxylic acid (4-fluoro-phenyl)-amide], the pEC50 under setting [1] is greater than 5.30.

In the case of `COc1ccc(NC(=O)c2sc3nc(C)cc(C)c3c2N)cc1` [Compound 163, 3-Amino-4,6-dimethyl-thieno[2,3-b]pyridine-2-carboxylic acid (4-methoxy-phenyl)-amide], the pEC50 (Vero, 48 h) is less than 4.60.

In the case of `CN1CCc2nc3sc(C(=O)Nc4ccc(Cl)cc4)c(N)c3c(-c3ccccc3)c2C1` [Compound 64, 3-Amino-6-methyl-4-phenyl-5,6,7,8-tetrahydro-thieno[2,3-b][1,6]naphthyridine-2-carboxylic acid (4-chloro-phenyl)-amide], the pEC50 under setting [1] was greater than 5.30.

With `CC1(C)Cc2c(c(N3CCOCC3)nc3sc(C(=O)N4CCOCC4)c(N)c23)CO1` [Compound 234, (1-Amino-8,8-dimethyl-5-morpholin-4-yl-8,9-dihydro-6H-7-oxa-3-thia-4-aza-cyclopenta[a]naphthalen-2-yl)-morpholin-4-yl-methanone], the pEC50 under setting [1] is less than 4.60.

Consider `Nc1c(C(=O)Nc2cc(Cl)ccc2Cl)sc2nc(-c3ccc4c(c3)OCO4)ccc12` [Compound 587, 3-amino-6-(1,3-benzodioxol-5-yl)-N-(2,5-dichlorophenyl)thieno[2,3-b]pyridine-2-carboxamide], for which, under setting [2], the EC50 was less than 5 µM.

For `CC1(C)Cc2nc3sc4c(=O)[nH]cnc4c3cc2CS1` [Compound 232, 8,8-Dimethyl-8,9-dihydro-2H,6H-7,11-dithia-2,4,10-triaza-benzo[b]fluoren-1-one], the pEC50 (Vero, 48 h) was less than 4.60.

In the case of `CN1CCc2nc3sc(C(=O)Nc4nc5ccccc5s4)c(N)c3cc2C1` [Compound 62, 3-Amino-6-methyl-5,6,7,8-tetrahydro-thieno[2,3-b][1,6]naphthyridine-2-carboxylic acid benzothiazol-2-ylamide], the pEC50 under setting [1] is greater than 5.30.

`COCc1cc(C)nc2sc(C(=O)Nc3ccccc3C)c(N)c12` [Compound 210, 3-Amino-4-methoxymethyl-6-methyl-thieno[2,3-b]pyridine-2-carboxylic acid o-tolylamide]: the pEC50 (Vero, 48 h) is less than 4.60.
